Data as given in patent US20020172972A1, “Use of a selectively inactivatable enzyme to digest contaminating nucleic acid” (President and Fellows of Harvard College, priority 2001, published 2002).

Target: T1, micrococcal nuclease (Staphylococcus aureus, UniProt P00644)
T1 construct: purchased Sigma N5386
Experiment: inactivation of micrococcal nuclease by EGTA, read out in the real time T7 DNA amplification reaction
Assay type: biochemical
Details: 2 mM EGTA added after incubation with 1 mM CaCl2
Source text: Micrococcal nuclease is obtained from Sigma (Sigma catalog number N5386 from Staphylococcus aureus, Foggi strain; 100-300 units/mg). EGTA, Ethylene glycol-bis(2-aminoethyl ether)-N,N,N′,N′-tetraacetic acid, is used as the micrococcal inactivating-agent and is obtained from Sigma (Sigma catalog number E8145. Tetrasodium salt). […]
DNA was quantitated by its ability to stimulate a real time DNA amplification reaction based on the T7 replication system, as described in PCT number WO 00/41524, published Jul. […] In this assay, the time required for the synthesized DNA to reach a designated threshold fluorescence value is proportional to the log of the input concentration of DNA over more than a 10,000,000-fold range of DNA concentration.

**Q.** How did the “effect of EGTA on micrococcal nuclease activity” value turn out when O=C(O)CN(CCOCCOCCN(CC(=O)O)CC(=O)O)CC(=O)O [EGTA, Ethylene glycol-bis(2-aminoethyl ether)-N,N,N′,N′-tetraacetic acid] was run?
**A.** inactivated
